The values below come from paper PMC5989272, “Transfer Hydrogenation and Antiproliferative Activity of Tethered Half-Sandwich Organoruthenium Catalysts” (Organometallics, 2018).

In series [1] the test system is MRC5 normal human lung fibroblast cells. The series can be described thus: Cytotoxicity (SRB assay), MRC5 normal fibroblasts. The class given is cell-based. The following applies: 24 h drug exposure, 72 h recovery, read-out: IC50 MRC 5. The protocol:
(§1) A2780 and A2780Cis human ovarian, A549 human lung, HEPG 2 human hepatocellular, MCF 7 human breast cancer, and MRC 5 human normal fibroblast cell lines were grown in Roswell Park Memorial Institute medium (RPMI-1640) supplemented with 10% of fetal calf serum, 1% of 2 mM glutamine, and 1% penicillin/streptomycin. All cells were grown as adherent monolayers at 310 K with 5% CO2 humidified, and all cells were passaged at ca. 80% confluency.
(§2) The antiproliferative activity and cytotoxicity of complexes 1–4 were determined in five different cancer cell lines and one human normal cell line. In general, about 5000 cells per well were seeded in 96-well plates. The plates were preincubated with drug-free medium at 310 K for 48 h before adding the tested compounds (various concentrations). Stock solutions of complexes 1–4 were prepared in DMSO/cell culture medium, and exact complex concentrations were determined by ICP-OES. […] A further cell recovery for 72 h was allowed in drug-free medium at 310 K. The sulforhodamine B (SRB) assay was used to determine cell viability. IC50 values, as the concentration that causes 50% cell death, were determined as duplicates of triplicates in two independent sets of experiments, and their standard deviations were calculated.
On the technique in general: Sulforhodamine B stains cellular protein and so reports cell mass.

The test system of series [2] is A2780 human ovarian cancer cells. Nature of the series: Antiproliferative activity (SRB assay), A2780. It is filed as cell-based. The settings on record: 24 h drug exposure, 72 h recovery in drug-free medium. The protocol:
as §1, §2

For series [3] the following is noted: NAD+ to NADH, formate hydride donor; Ru/NAD+/formate 1/4/25, DMSO-d6/D2O, pH* 7.2, 310 K. The protocol: (§3) Catalytic transfer hydrogenation reactions of complexes 1–4 and sodium formate as hydride donor for conversion of nicotinamide adenine dinucleotide (NAD^+) to NADH were studied in aqueous media by UV–visible spectroscopy by following the absorbance at 340 nm for NADH and by ^1H NMR spectroscopy (20% DMSO-d6 in D2O) by monitoring peaks corresponding to 1,4-NADH.
Complexes 1–4 were dissolved in DMSO-d6/D2O (3/2 v/v; 1.4 mM) in a glass vial. Aliquots (200 μL) of solutions of sodium formate (35 mM) and NAD^+ (5.6 mM) in D2O were added, and the pH* was adjusted to 7.2 ± 0.1, for a final volume of 0.64 mL (Ru complex 0.44 mM, NAD^+ 1.75 mM, NaHCO2 10.94 mM; molar ratio 1/4/25). The solution was transferred to a 5 mm NMR tube, and a ^1H NMR spectrum was recorded at 310 K every 162 s until the completion of the reaction. Molar ratios of NAD^+ and NADH were determined by integrating the peaks corresponding to resonances for NAD^+ (9.33 ppm) and 1,4-NADH (6.96 ppm). The turnover number (TON) for the reaction was calculated [drawing 1] where In is the integral of the signal at n ppm and [NAD^+] is the concentration of NAD^+ at the start of the reaction.

The test system of series [4] is A549 human lung cancer cells. The series can be described thus: Antiproliferative activity (SRB assay), A549. The class given is cell-based. The settings on record: 24 h drug exposure, 72 h recovery in drug-free medium. How it is done: as §1, §2
The conditions of series [5]: NAD+ to NADH, formate hydride donor; Ru/NAD+/formate 1/6/1200, pH 7.2, 310 K, 340 nm. The protocol:
as §3
Complexes 1–4 were dissolved in DMSO/H2O (1/9 v/v) (84 μM) in a glass vial. Solutions of sodium formate (102 mM) and NAD^+ in H2O (510 μM) were also prepared and then mixed at 310 K. In a typical experiment, an aliquot of 330 μL from each solution was placed in a 1 mL cuvette and the pH adjusted to 7.2 before the sample was introduced into the UV–vis instrument, giving a total volume of 1 mL (final concentrations were Ru complex 28 μM, NAD^+ 170 μM, NaHCO2 34 mM, molar ratio 1/6/1200). UV spectra were recorded every 5 min until completion of the reaction. The spectrum was monitored for an increase in the band at 340 nm, which corresponds to the absorption of NADH.

In series [6] the test system is MCF7 human breast cancer cells. The series can be described thus: Antiproliferative activity (SRB assay), MCF7. The class given is cell-based. The settings on record: 24 h drug exposure, 72 h recovery in drug-free medium; read-out: IC50 MCF 7. How it is done: as §1, §2
Series [7] has as its system HEPG2 human hepatocellular cancer cells. The series can be described thus: Antiproliferative activity (SRB assay), HEPG2. It is filed as cell-based. The following applies: 24 h drug exposure, 72 h recovery in drug-free medium. How it is done:
as §1, §2

For series [8], the system named is A2780Cis cisplatin-resistant ovarian cancer cells. Nature of the series: Antiproliferative activity (SRB assay), A2780Cis. The settings on record: for IC50: 24 h drug exposure, 72 h recovery in drug-free medium; for RI (resistance index): ratio of IC50 A2780Cis to parental A2780. The class given is cell-based, human. The protocol: as §1, §2
In series [9] the test system is A2780 human ovarian cancer cells. The following applies: 24 h exposure at equipotent IC50 concentration, no recovery. How it is done: (§4) ICP-MS and ICP-OES analyses were carried out on Agilent Technologies 7500 series and PerkinElmer Optima 5300 DV series instruments, respectively. The double-deionized (DDW) water used for both analyses was from a Millipore Milli-Q water purification system and a USF Elga UHQ water deionizer. The Ruthenium Specpure plasma standard (ruthenium chloride, 1004 ± 5 μg/mL in 10% v/v hydrochloric acid) was diluted with 3.6% v/v HNO3, and calibrants were prepared freshly at concentrations of 0.1–500 ppb for ICP-MS and 50–700 ppb for ICP-OES. In particular, calibration standards for ICP-OES analysis were adjusted with standard sodium chloride (TraceSELECT) solution to match the sample salinity. The instrument was set to detect ^101Ru with typical detection using no-gas mode for ICP-MS analysis.
(§5) Cellular Ru accumulations for complexes 2 and 4 were determined on A2780 ovarian and A2780 cisplatin-resistant ovarian cancer cells. Approximately 2 × 10^6 cells were seeded in a six-well plate and preincubated in drug-free medium at 310 K for 24 h, and stock solutions of both complexes were prepared in a mixture of DMSO/cell culture medium and their accurate Ru concentrations were determined by ICP-OES. […] After this time, cells were treated with trypsin and counted and cell pellets were collected. […] Statistical significances of variations were determined using Welch’s t-tests.

Series [10] has as its system A2780Cis cells. The following applies: 24 h exposure at equipotent IC50 concentration, no recovery. The protocol:
as §4, §5

Details of series [11]: method as in PMID 16604356. The settings on record: cited from earlier work.
Series [12] deals with A2780 human ovarian cancer cells. The series can be described thus: Cell viability on coincubation with sodium formate (SRB). The following applies: 0.5, 1 and 2 mM sodium formate.
Method: Experiments included three sets of controls: the first, negative controls, consisted of untreated cells (only vehicle exposure), a second set was exposed to three concentrations of sodium formate (0.5, 1, and 2 mM), and a third set was exposed to cisplatin as positive controls. […] Following 72 h of recovery time in drug-free medium, cell survival was evaluated using the Sulforhodamine B colorimetric assay.
Cell viability assays of complexes 1–4 were carried out with A2780 ovarian cancer cells with sodium formate. […] Drug stock solutions (ca. 100 μM) were prepared as described for in vitro growth inhibition assays and then further diluted with media until working concentrations were achieved. Separately, a stock solution of sodium formate was prepared in saline. The complex and formate solutions were added to each well independently within 5 min of each other. All other experimental conditions were kept unchanged (drug exposure, cell recovery time, and end point assay used). The standard deviations were calculated.
Series [13] deals with double-stranded 50-mer oligonucleotide. The series can be described thus: Binding to double-stranded 50-mer oligonucleotide (FAAS). The following applies: ri = 0.5, 0.05 M NaClO4, 310 K, 24 h, dark. The protocol:
(§6) After 24 h the reaction was stopped, and samples were exhaustively dialyzed against water. The ruthenium contents in these samples were determined by FAAS, and the concentrations of DNA were determined by absorption spectroscopy.

The test system of series [14] is single-stranded 50-mer oligonucleotide. The series can be described thus: Binding to single-stranded 50-mer oligonucleotide (FAAS). The settings on record: ri = 0.5, 0.05 M NaClO4, 310 K, 24 h, dark. How it is done:
as §6

The test system of series [15] is double-helical calf thymus DNA (ct-DNA). The series can be described thus: Binding to calf thymus DNA (FAAS after dialysis). The following applies: ri 0.1 and 0.5, 10 mM NaClO4, 310 K, 24 h.
Method: The reaction was terminated after 24 h of incubation, and samples were exhaustively dialyzed against water. The ruthenium content in these samples was determined by flameless atomic absorption spectrometry (FAAS) and the concentration of DNA by absorption spectrophotometry.
Series [16] concerns A2780 human ovarian cancer cells. Nature of the series: ROS/superoxide induction (flow cytometry). The class given is cell-based. The following applies: IC50 concentration, 24 h; pyocyanin 30 min. The protocol:
The total level of oxidative stress, including H2O2, peroxy and hydroxyl radical, peroxynitrite, NO, and superoxide production, was monitored using the green channel FL1 and orange channel FL2, respectively.
Positive controls were obtained by exposure of cells to pyocyanin for 30 min. Data were processed using Flowjo software. At all times, samples were kept under dark conditions to avoid light-induced ROS production.

The term IC50 denotes the midpoint of a concentration-inhibition curve.

Consider “[Ru(η^6-Ph(CH2)3-ethylenediamine-N-Tf)Cl] [Complex 3]”, for which the IC50 in [1] was 28 ± 3 µM; in [2], above 50 µM; in [4], 31 ± 2 µM; in series [6] it was 24 ± 3 µM; in [7], above 50 µM; in [8], above 50 µM. The “TOF (NMR)” value in series [3] is reported as 8.9 ± 0.3 h^–1. Besides, the “TOF (UV–vis)” value in [5] is listed as 8.69 ± 0.07 h^–1.

For “[Ru(η^6-Ph(CH2)3-ethylenediamine-N-Ms)Cl] [Complex 1]”, the IC50 in series [1] was 31 ± 1 µM; in [2], 23 ± 1 µM; in series [4], 33 ± 1 µM; in series [6], 28.9 ± 0.9 µM; in series [7], 27.8 ± 0.1 µM; in series [8], above 50 µM. Besides, the “TOF (NMR)” value in [3] stood at 3.79 ± 0.05 h^–1. The “TOF (UV–vis)” value in series [5] was 5.8 ± 0.2 h^–1. Besides, the “RI (resistance index)” value in series [8] is on record as above 2.

On to “[Ru(η^6-Ph(CH2)3-ethylenediamine-N-Nb)Cl] [Complex 4]”, for which the IC50 in series [1] was 26 ± 1 µM; in series [2] it was 16 ± 0.3 µM; in [4] it was 30 ± 1 µM; in series [6], 9.9 ± 0.5 µM; in series [7], 23 ± 4 µM; in series [8], above 50 µM. In addition, in series [3], the “TOF (NMR)” value is 8.5 ± 0.2 h^–1. Also, in series [5], the “TOF (UV–vis)” value came to 9.9 ± 0.2 h^–1. Moreover, the entries for the “cellular Ru content” value in [9] and in series [10] were 150 ± 38 ng per million cells and 241 ± 10 ng per million cells, respectively. In addition, the “RI (resistance index)” value in series [8] was above 3.

As for `F[P-](F)(F)(F)(F)F.NCCN.[Cl][Ru+].c1ccc(-c2ccccc2)cc1` [RM175, [(η^6-biph)Ru(en)Cl]PF6], the “TOF for TH reduction of NAD+” value in series [11] is reported as 0.18 h^–1.

For `O=C[O-].[Na+]` [sodium formate], the “toxicity of formate alone” value in [12] was “not toxic”.

For `[NH2][Pt]([NH2])([Cl])[Cl]` [CDDP, cisplatin, reference compound], the IC50 in series [1] was 12.8 ± 0.3 µM; in series [2], 1.2 ± 0.02 µM; in series [4] it was 3.1 ± 0.1 µM; in [6], 7.3 ± 0.2 µM; in series [7] it was 5.7 ± 0.9 µM; in series [8], 13.4 ± 0.3 µM. The “selectivity index between MRC5 normal cells and A2780Cis cancer cells” value in series [8] (MRC5 vs A2780Cis) is given as 0.95. Moreover, the “RI (resistance index)” value in series [8] is recorded as 11.

In the case of `Cc1ccc(C(C)C)cc1.Cc1ccc(S(=O)(=O)[N](CCN)[Ru][Cl])cc1` [JS2, [(η^6-p-cym)Ru(TsEn)Cl]], the “Ru bound to double-stranded oligonucleotide” value in series [13] is reported as “No Ru associated”. Also, the “Ru bound to single-stranded oligonucleotide” value in series [14] is listed as “No Ru associated”. The “ruthenium bound to ct-DNA” value in [15] was “No detectable amount of ruthenium”. For the same molecule, the “TOF for TH reduction of NAD+” value in series [11] is on record as 2.88 h^–1.

On to `Cn1c2cccc(=O)c-2nc2ccccc21` [Pyocyanin, pyocyanin], for which, in series [16], the “Cell Populations FL-1+/FL-2+” value came out at 96.1 ± 0.8%, the “Cell Populations FL-1+/FL-2- (total oxidative stress)” value is on record as 1.5 ± 0.6%, the “Cell Populations FL-1-/FL-2+ (superoxide)” value is reported as 2.5 ± 0.9% and the “Cell Populations FL-1-/FL-2-” value turned out to be 0.45 ± 0.08%.
